# From patent US10660933B2, “Compositions and methods for inhibition of bacterial infections in human endocervix” (priority 2015, dated 2020)
# Legend:
# Format in all cases: cell-based
# [1] = test system: phosphorylated myosin light chain (pMLC); experiment: pMLC redistribution in Ng-inoculated human endocervical tissue explants; settings: MS11ΔOpa-inoculated endocervical tissue explants, 24 h
# Procedure: To explore the possibility of that Ng induced NMII redistribution occurs in vivo, we incubated human endocervical tissue explants with MS11ΔOpa for 24 h. Cryo-sections of the endocervical tissue were stained for pMLC, Ng and nuclei. In addition to its apical junction localization, pMLC was concentrated at the basal surface of the endocervical epithelial cells contacting with the basal membrane (FIG. 6A, upper panels). When incubated with MS11ΔOpa, there was a redistribution of pMLC from the basal to apical surface, resulting in a significant higher apical:lateral FIR in Ng inoculated tissue explants than that in no Ng control (FIG. 6), similar to what we observed in polarized T84 (FIGS. 5A and 5B) and HEC-1-B cells (FIG. 10). Furthermore, pMLC at the apical surface of the endocervical epithelial cells also concentrated at Ng adherent sites (FIG. 6A, second row, white arrows), but not at the membrane of cells neighboring exfoliating cells (FIG. 6A, second row, orange arrows). These observations confirm that Ng increase the relative amount of activated NMII at the apical surface of the endocervical epithelial cells in human tissue explants. […]
# (§1) Immunofluorescence analysis of human endocervical tissue explants. […] The tissue was fixed, embedded in gelatin, cryopreserved, sectioned crossing the apical and basolateral surfaces of the epithelium, stained for ZO1 (BD Bioscience), pMLC (Cell Signaling Technology, Beverly, Mass.), and Ng (51) by specific antibodies, and nuclei by DAPI (Life Technologies, Carlsbad, Calif.), and analyzed using CFM (Zeiss LSM 710, Carl Zeiss Microscopy LLC, Oberkochen, Germany). […]
# To quantify epithelial exfoliation, the number of Ng associated cells localized on the top of the epithelial monolayer (exfoliated) and the total number of Ng associated epithelial cells was counted by visual inspection in each randomly acquired image, to determine the percentage of exfoliated cells. To estimate the level of Ng penetration into the subepithelium, the number of non-exfoliated epithelial cells (in clearly visible epithelial monolayers) with basal Ng staining and the total number of Ng associated epithelial cells were visually counted to calculate the percentage of infected epithelial cells with Ng penetration into the basolateral side. To evaluate the disruption of the apical junction, the number of Ng associated epithelial cells that lost continuously apical staining of the junctional protein ZO1 and the total number of Ng associated epithelial cells were visually counted to calculate the percentage of Ng associated epithelial cells with apical junction disassembly. […]
# [2] = test system: ZO1; experiment: ZO1 distribution and cell morphology in Ng-infected human endocervical tissue explants; settings: MS11ΔOpa 24 h, ML-7 10 μM
# Excerpt: We determined if MS11ΔOpa can induce the disruption of the apical junction in human endocervical tissue. Sections of uninfected and infected tissue explants were stained for the junctional protein ZO1, Ng, and DNA and analyzed by 3D-CFM (FIG. 4G). We quantified junction disruption by determining the percentage of Ng associated epithelial cells that lost continuous apical staining of ZO1, using 3D reconstituted confocal images (FIG. 4G, right panels). […] In contrast to the recruitment of ZO1 to epithelial cells neighboring exfoliating cells in uninfected monolayers, no accumulation of ZO1 staining was observed around Ng infected exfoliating cells (FIG. 4I, arrows). […] Treatment with the MLCK inhibitor ML-7 restored both the morphology (FIG. 4G left panels) and apical distribution of ZO1 (FIG. 4H).
# as §1
# [3] = test system: human endocervical tissue explants; experiment: Ng-induced epithelial exfoliation of human endocervical tissue explants (3D-CFM); settings: MS11ΔOpa, 24 h; ML-7 10 μM, PIK 100 μM
# Procedure: (§2) Human endocervical tissue explants. The tissue explants were cultured as previously described. Endocervical tissues were obtained from patients undergoing voluntary hysterectomies and received within 24 h post-surgery. Samples were cut into ˜2.5 cm (L)×0.6 cm (W)×0.3 cm (H) pieces, incubated in CMRL-1066 (GIBCO, Gaithersburg, Md.) plus antibiotics for 24 h, and then switched to antibiotic-free media for 24 h.
# as §1
# (§3) To quantify epithelial exfoliation, the number of Ng associated cells localized on the top of the epithelial monolayer (exfoliated) and the total number of Ng associated epithelial cells was counted by visual inspection in each randomly acquired image, to determine the percentage of exfoliated cells. […] To quantify the redistribution of pMLC, the fluorescence intensity ratios (FIR) of pMLC staining at the apical to lateral in individual epithelial cells were determined using average FI as previously described.
# [4] = test system: Neisseria gonorrhoeae MS11ΔOpa; experiment: Ng subepithelial penetration in human endocervical tissue explants (3D-CFM); settings: MS11ΔOpa, 24 h; ML-7 10 μM or PIK 100 μM; 27% without inhibitor
# Procedure: as §2
# Immunofluorescence analysis of human endocervical tissue explants. Individual endocervical tissue pieces were incubated with Ng at a MOI of ˜10 (based on the average number of endocervical epithelial cells in endocervical tissue pieces) in the presence or absence of the MLCK inhibitor ML-7 (10 μM, EMD Millipore) and PIK (100 μM) (54) on transwells for 24 h. Unassociated Ng were removed by extensive washes at 6 and 12 h. The tissue was fixed, embedded in gelatin, cryopreserved, sectioned crossing the apical and basolateral surfaces of the epithelium, stained for ZO1 (BD Bioscience), pMLC (Cell Signaling Technology, Beverly, Mass.), and Ng (51) by specific antibodies, and nuclei by DAPI (Life Technologies, Carlsbad, Calif.), and analyzed using CFM (Zeiss LSM 710, Carl Zeiss Microscopy LLC, Oberkochen, Germany). […]
# as §3, with “cells. To estimate the level of Ng penetration into the subepithelium, the number of non-exfoliated epithelial cells (in clearly visible epithelial monolayers) with basal Ng staining and the total number of Ng associated epithelial cells were visually counted to calculate the percentage of infected epithelial cells with Ng penetration into the basolateral side.” for “cells.”
smiles,measurement,setting,value
O=S(=O)(c1cccc2c(I)cccc12)N1CCCNCC1 [ML-7],pMLC accumulation at Ng adherent sites,[1],significantly reduced
same,apical:lateral FIR of pMLC,"[1]; ML-7 10 μM, PIK 100 μM",significantly reduced
same,apical distribution of ZO1,[2],restored
same,morphology of endocervical epithelial cells,[2],restored
same,epithelial exfoliation of human endocervical tissue explants,[3],decreased the epithelial exfoliation of human endocervical tissue explants to the basal level
same,percentage of epithelial cells with basally associated Ng,[4],7.1%
